Data on two compounds can be found in PMC8047011, “Enantiomers of 2-methylglutamate and 2-methylglutamine selectively impact mouse brain metabolism and behavior” (Scientific Reports, 2021).

The structures appear in SMILES notation.

In data set [1] the target is T1, GABAB (B1/B2) (Homo sapiens, UniProt Q9UBS5).
T1 construct: purchased SB Drug Discovery (CNS discovery panel, FLIPR); Eurofins Discovery (Cerep)
The data set can be described thus: Functional GABAB assay, Ca2+-dependent fluorimetry in RBL cells. Particulars: 100 μM, triplicate. It counts as cell-based.

Data set [2] addresses T2, GABAA α3β3γ2 (Homo sapiens, UniProt P28472+P34903).
T2 construct: host or cells: HEK 293
The data set can be described thus: FLIPR functional receptor assay, GABAA α3β3γ2. Particulars: top test concentration 1 mM; for EC50: agonist mode. It counts as cell-based. The protocol:
(§1) Receptor functional & binding assays
(§2) Functional assays of all GABAA, NMDA (GluN2A–GluN2D) and AMPA (GluA2) receptor subunits were performed by SB Drug Discovery as a part of their CNS discovery panel using FLIPR technology. Briefly, receptor-expressing HEK 293 cell lines were incubated in a red membrane potential dye in HEPES:HBSS pH 7.4 buffer and the fluorescence (λex: 488, λex: 510–570) was monitored over time as the test compounds and/or reference compounds were added to the solution. In agonist assay, only test compounds were added. In positive allosteric modulator assay, cells were preincubated with test compounds and then low concentration (approximately EC20) of an appropriate agonist was added. In antagonist assay, cells were preincubated with test compounds and then high concentration (approximately EC80) of an appropriate agonist was added. For GABAA assays, GABA was used as the agonist, picrotoxin was used as the reference antagonist and allopregnanolone was used as the reference positive allosteric modulator (PAM). For NMDA assays, a mixture of glutamate, glycine and CaCl2 was used as the agonist, MK801 was the reference antagonist and pregnenolone sulfate or GNE 9278 were used as reference PAMs. For AMPA assays, glutamate was used as the agonist, CNQX was the reference antagonist and cyclothiazide was used as the reference PAM. All compounds were tested at 7 concentration points in triplicate and EC50/IC50 was determined where applicable. […]

Data set [3] addresses T3, GABAB (B1a/B2) (Homo sapiens, UniProt Q9UBS5).
T3 construct: purchased SB Drug Discovery (CNS discovery panel, FLIPR); Eurofins Discovery (Cerep)
The data set can be described thus: GABAB (B1a/B2) binding assay. Particulars: triplicate, read-out: % of radioligand binding inhibition, GABAB (B1a/B2). The protocol: (§3) mGluR1, mGluR2, mGluR5 and GABAB binding assays were performed by Eurofins Discovery. […]
(§4) mGluR5 and GABAB binding assays were performed using recombinant CHO-K1 cells and
(§5) [3H]CGP-54626 and [3H]quisqalic acid, respectively. All compounds were tested at a single
(§6) concentration of 100 uM in triplicate. […]

The target of data set [4] is T4, GABAA α4β1γ2 (Homo sapiens, UniProt P18505+P48169).
T4 construct: host or cells: HEK 293
The data set can be described thus: FLIPR functional receptor assay, GABAA α4β1γ2. It counts as cell-based. As to conditions: agonist mode; top test concentration 1 mM. The protocol:
as §1
as §2, with “For AMPA assays, glutamate was used as the agonist, CNQX was the reference antagonist and cyclothiazide was used as the reference PAM.” left out

Data set [5] concerns primary murine cerebral astrocytes. Put plainly: Astrocyte transport and metabolism of 2MeGlu. Particulars: 1 mM substrate, 2 h, 37 °C. It counts as cell-based, mouse. The protocol: Primary astrocytes from C57Bl/6 mouse brain were cultured in complete astrocyte growth medium at 37 °C at 5% CO2 on 96 well plates. Cells were exposed to 1 mM compound in 100 μL medium for 2 h at 37 °C. Supernatants were collected, centrifuged at 2500g for 10 min at 4 °C. 10 μL aliquots were diluted with 190 μL 60% ACN containing 10 μM Glu-d5 and Gln-d5. Cells were quickly washed with 250 μL cold PBS twice and suspended in 200 μL of 60% ACN containing 10 μM Glu-d5 and Gln-d5. All samples were shaken at 1000 rpm for 5 min and then stored at – 80 °C.

Data set [6] concerns the target T5, GABAA α3β2γ2 (Homo sapiens, UniProt P34903+P47870).
T5 construct: host or cells: HEK 293
The data set can be described thus: FLIPR functional receptor assay, GABAA α3β2γ2. As to conditions: agonist mode; top test concentration 1 mM. It counts as cell-based. The protocol: as §1
as §2, with “For AMPA assays, glutamate was used as the agonist, CNQX was the reference antagonist and cyclothiazide was used as the reference PAM.” left out

The target of data set [7] is T6, mGluR1 (Rattus norvegicus, UniProt P23385).
T6 construct: purchased SB Drug Discovery (CNS discovery panel, FLIPR); Eurofins Discovery (Cerep)
Put plainly: mGluR1 radioligand binding assay. As to conditions: triplicate. The protocol: as §3, §5, §6

Data set [8] deals with T7, mGluR2 (Homo sapiens, UniProt Q14416).
T7 construct: purchased SB Drug Discovery (CNS discovery panel, FLIPR); Eurofins Discovery (Cerep)
T7 sequence (Q14416 19-872): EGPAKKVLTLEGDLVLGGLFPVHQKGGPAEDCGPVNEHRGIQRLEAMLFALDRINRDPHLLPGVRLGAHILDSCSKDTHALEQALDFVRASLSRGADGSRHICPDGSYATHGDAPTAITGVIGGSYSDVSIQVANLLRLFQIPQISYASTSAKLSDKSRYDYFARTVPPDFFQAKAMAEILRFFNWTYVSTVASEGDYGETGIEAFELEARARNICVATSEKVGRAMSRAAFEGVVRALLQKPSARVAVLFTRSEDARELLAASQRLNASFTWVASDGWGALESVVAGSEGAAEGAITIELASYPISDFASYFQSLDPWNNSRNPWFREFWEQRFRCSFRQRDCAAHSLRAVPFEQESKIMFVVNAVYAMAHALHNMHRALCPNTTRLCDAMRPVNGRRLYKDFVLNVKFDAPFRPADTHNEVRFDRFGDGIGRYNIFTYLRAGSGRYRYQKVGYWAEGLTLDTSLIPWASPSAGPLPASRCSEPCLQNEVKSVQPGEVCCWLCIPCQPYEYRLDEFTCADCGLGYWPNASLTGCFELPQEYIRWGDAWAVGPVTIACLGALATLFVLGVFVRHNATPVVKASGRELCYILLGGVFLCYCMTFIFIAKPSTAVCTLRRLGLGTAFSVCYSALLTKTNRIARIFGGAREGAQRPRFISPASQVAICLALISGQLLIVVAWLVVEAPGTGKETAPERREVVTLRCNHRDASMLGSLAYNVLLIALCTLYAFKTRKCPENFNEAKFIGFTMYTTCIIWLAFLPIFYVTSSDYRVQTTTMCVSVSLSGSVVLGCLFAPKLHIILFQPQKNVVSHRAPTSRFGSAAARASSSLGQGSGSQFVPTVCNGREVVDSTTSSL
The data set can be described thus: mGluR2 radioligand binding assay. Particulars: triplicate. The protocol:
as §3, §5, §6

Data set [9] concerns the target T8, GABAA α2β2γ2 (Homo sapiens, UniProt P47869+P47870).
T8 construct: host or cells: HEK 293
The data set can be described thus: FLIPR functional receptor assay, GABAA α2β2γ2. It counts as cell-based. Particulars: agonist mode; top test concentration 1 mM. The protocol: as §1
as §2, with “For AMPA assays, glutamate was used as the agonist, CNQX was the reference antagonist and cyclothiazide was used as the reference PAM.” left out

The target of data set [10] is T9, GABAA α3β1γ2 (Homo sapiens, UniProt P18505+P34903).
T9 construct: host or cells: HEK 293
Put plainly: FLIPR functional receptor assay, GABAA α3β1γ2. It counts as cell-based. Particulars: agonist mode; top test concentration 1 mM. The protocol:
as §1
as §2, with “For AMPA assays, glutamate was used as the agonist, CNQX was the reference antagonist and cyclothiazide was used as the reference PAM.” left out

In data set [11] the test system is mouse cerebral synaptosomes. Put plainly: Synaptosomal neurotransmitter uptake assay. As to conditions: 10 μM substrate; for Transport into synaptosomes: 37 °C. It counts as cell-based. The protocol:
Mouse cerebral synaptosomes were prepared according to published methods. See Supplementary Methods for details. 500 μL aliquots of the synaptosome suspension were transferred to pre-chilled microcentrifuge tubes for experiments. Centrifugations were at 8000g for 4 min at 4 °C, unless stated otherwise, and all samples were stored at − 80 °C.
To each tube, 5 μL of a test compound solution (final concentration 10 μM) in Buffer KRP or Buffer KRP alone were added. Samples were incubated at 4 °C or 37 °C for 1, 10, or 30 min and then immediately centrifuged and washed twice by resuspension–centrifugation with Buffer S (0.5 mL). Resulting pellets were resuspended in 170 μL of 0.1% aqueous formic acid and mixed with 330 μL of ACN.
Buffer S (4 mL, × 1) and Buffer KRP (2 mL, × 3). The resulting pellet was resuspended in 3 mL of Buffer KRP and filtered on Ultrafree-CL 5 μm PVDF centrifugal device (1,000g for 4 min at 4 °C). The filtrate was diluted to 15 mL with ice cold Buffer KRP and kept on ice. The synaptosome preparation was used immediately in the following experiments.
Synaptosomal neurotransmitter uptake assay
96-well plate experiments: 250 μL aliquots of the synaptosome suspension were transferred to two 0.8-mL 96 well plates, one on ice (0 °C samples only) and one in a thermoblock (37 °C samples only), and equilibrated for 10 min. 5 μL of a test compound (0.5 mM; final concentration: 10 μM) in Buffer KRP or Buffer KRP blank were added 10, 20 or 30 min before the incubation termination. “0 min” samples were prepared by placing the test compound solution in a separate pre-chilled V-shape bottom 2-mL 96 well plate; at the end of incubation 200 μL aliquots of all samples were transferred to the 2-mL 96 well plate and centrifuged (2,500g for 15 min at 4 °C) immediately. The resulting pellets were rinsed with Buffer KRP, followed by centrifugation, twice, then resuspended in 200 μL of 60% ACN containing 2.5 μM Glu-d5 as internal standard and stored at –80 °C until analysis. […]

Data set [12] has as its target T10, GABAA α2β3γ2 (Homo sapiens, UniProt P28472+P47869).
T10 construct: host or cells: HEK 293
Put plainly: FLIPR functional receptor assay, GABAA α2β3γ2. Particulars: agonist mode; top test concentration 1 mM. It counts as cell-based. The protocol:
as §1
as §2, with “For AMPA assays, glutamate was used as the agonist, CNQX was the reference antagonist and cyclothiazide was used as the reference PAM.” left out

Data set [13] concerns the target T1, GABAB (B1/B2). The data set can be described thus: GABAB binding assay (B1/B2; nonsel). Particulars: triplicate, rat, read-out: % of radioligand binding inhibition, GABAB nonsel. The protocol: as §3, §4, §5, §6

T2 sequence (P34903 29-492): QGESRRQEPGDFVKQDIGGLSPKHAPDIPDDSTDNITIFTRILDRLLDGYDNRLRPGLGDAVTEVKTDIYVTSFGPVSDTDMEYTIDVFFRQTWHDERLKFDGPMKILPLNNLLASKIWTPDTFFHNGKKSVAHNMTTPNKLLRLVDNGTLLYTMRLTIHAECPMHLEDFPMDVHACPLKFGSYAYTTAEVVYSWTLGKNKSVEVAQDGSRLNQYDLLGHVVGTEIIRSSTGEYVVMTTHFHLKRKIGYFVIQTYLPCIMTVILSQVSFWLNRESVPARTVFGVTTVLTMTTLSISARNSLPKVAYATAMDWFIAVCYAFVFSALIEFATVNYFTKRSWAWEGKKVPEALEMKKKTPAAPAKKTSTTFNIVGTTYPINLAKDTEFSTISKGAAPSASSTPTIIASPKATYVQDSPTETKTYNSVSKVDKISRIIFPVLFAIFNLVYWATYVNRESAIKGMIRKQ
T2 sequence (P28472 26-473): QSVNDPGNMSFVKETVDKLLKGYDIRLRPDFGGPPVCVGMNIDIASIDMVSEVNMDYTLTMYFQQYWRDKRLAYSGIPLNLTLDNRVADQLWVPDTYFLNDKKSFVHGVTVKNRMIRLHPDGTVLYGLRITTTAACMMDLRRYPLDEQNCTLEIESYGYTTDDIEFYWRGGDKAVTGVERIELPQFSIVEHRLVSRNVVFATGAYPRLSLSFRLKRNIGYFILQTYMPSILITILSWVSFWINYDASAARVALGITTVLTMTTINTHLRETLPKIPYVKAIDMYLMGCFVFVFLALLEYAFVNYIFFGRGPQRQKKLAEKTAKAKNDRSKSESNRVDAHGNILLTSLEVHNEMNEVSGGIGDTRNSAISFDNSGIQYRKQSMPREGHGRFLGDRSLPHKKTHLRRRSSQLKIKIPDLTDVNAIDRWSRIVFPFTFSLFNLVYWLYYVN
T2 sequence (P18507 40-475 partner): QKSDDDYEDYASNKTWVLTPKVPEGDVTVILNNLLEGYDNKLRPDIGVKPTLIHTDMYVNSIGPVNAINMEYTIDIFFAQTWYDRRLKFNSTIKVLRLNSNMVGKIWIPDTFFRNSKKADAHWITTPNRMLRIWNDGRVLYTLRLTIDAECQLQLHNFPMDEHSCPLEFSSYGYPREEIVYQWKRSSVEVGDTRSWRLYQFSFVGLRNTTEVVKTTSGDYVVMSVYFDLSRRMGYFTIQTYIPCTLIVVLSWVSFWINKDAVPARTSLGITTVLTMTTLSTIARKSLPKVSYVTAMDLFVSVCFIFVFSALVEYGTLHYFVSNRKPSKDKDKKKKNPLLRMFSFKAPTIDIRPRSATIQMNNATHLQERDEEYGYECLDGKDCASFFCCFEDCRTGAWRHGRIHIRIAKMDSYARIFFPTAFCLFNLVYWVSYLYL
T1 sequence (Q9UBS5 20-961): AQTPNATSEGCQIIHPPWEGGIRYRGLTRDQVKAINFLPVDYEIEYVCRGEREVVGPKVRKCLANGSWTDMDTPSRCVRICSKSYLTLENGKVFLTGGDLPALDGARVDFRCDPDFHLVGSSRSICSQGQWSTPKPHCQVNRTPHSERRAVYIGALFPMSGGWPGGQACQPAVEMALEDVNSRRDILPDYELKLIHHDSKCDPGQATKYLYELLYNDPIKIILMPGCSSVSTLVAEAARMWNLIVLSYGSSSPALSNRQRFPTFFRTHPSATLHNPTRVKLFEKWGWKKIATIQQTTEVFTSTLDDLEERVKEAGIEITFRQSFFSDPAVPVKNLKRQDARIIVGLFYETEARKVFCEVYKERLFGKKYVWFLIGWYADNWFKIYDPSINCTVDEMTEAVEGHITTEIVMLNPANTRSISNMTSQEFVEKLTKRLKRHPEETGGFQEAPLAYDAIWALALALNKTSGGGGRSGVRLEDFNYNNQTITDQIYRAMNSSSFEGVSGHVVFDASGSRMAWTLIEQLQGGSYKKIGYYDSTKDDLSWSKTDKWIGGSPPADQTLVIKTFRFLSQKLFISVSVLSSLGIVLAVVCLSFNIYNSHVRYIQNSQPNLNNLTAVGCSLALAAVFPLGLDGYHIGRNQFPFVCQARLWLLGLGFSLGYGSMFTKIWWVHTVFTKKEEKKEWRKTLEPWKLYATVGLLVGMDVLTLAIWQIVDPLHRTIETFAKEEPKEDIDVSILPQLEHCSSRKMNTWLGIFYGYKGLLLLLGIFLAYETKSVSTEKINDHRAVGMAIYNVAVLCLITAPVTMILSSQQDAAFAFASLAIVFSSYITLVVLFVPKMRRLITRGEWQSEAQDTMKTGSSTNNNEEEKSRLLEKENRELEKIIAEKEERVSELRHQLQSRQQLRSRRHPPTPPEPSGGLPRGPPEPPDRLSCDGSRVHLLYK
T1 sequence (O75899 42-941 partner): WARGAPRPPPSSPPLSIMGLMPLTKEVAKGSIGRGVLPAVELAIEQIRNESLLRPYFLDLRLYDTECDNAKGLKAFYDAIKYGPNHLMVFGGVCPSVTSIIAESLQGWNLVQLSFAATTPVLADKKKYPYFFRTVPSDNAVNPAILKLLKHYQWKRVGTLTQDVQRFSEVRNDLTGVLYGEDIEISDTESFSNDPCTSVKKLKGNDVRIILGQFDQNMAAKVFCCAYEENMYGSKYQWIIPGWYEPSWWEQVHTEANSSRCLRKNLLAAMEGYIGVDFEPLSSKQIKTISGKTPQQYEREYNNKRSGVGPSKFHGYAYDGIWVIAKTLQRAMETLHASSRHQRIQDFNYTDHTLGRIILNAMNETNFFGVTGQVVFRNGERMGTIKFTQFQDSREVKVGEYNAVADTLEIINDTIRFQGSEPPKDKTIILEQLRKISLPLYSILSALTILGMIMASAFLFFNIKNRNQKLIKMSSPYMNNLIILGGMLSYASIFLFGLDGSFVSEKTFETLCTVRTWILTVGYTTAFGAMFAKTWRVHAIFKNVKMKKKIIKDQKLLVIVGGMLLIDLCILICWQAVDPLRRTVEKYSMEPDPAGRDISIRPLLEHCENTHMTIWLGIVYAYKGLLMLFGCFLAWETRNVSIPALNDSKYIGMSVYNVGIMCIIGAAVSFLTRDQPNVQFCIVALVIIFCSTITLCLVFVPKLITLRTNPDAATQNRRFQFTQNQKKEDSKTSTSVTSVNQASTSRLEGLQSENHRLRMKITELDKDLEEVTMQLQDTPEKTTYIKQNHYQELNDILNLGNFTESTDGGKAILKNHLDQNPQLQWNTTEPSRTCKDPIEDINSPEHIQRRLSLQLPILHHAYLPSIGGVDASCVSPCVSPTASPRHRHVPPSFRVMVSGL
T5 sequence (P34903 29-492): as the sequence (P34903 29-492) above
T5 sequence (P47870 25-512 limits assumed): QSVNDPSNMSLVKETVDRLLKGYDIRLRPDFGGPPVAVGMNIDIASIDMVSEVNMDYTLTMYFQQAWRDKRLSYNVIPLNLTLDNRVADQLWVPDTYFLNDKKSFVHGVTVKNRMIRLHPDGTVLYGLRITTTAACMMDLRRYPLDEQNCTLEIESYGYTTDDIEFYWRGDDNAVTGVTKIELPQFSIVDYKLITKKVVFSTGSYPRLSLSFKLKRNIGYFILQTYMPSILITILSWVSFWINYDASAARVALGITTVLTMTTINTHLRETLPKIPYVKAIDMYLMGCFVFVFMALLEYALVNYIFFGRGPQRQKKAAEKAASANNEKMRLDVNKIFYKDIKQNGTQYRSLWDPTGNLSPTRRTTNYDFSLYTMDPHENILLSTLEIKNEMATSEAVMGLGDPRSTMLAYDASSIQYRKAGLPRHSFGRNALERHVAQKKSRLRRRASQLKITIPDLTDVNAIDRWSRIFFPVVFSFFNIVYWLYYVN
T5 sequence (P18507 40-475 partner): as the sequence (P18507 40-475 partner) above

Regarding `C[C@@](N)(CCC(=O)O)C(=O)O` [(R)-2MeGlu, (R)-2-methylglutamic acid], in data set [1], the “% of agonist response, GABAB (B1/B2)” value stood at 0%. The EC50 (commonly the concentration needed to bring the measured effect to its halfway point) in [2] is 959 µM; in [4] it was 870 µM; in data set [6], > 1000 µM; in data set [9], 660 µM; in data set [10], 742 µM; in data set [12] it was 622 µM. Further, the inhibition at 100 µM was 18% in [3], -3% in [7], -3% in data set [8] and 5% in [13]. In data set [5], the “Astrocyte uptake and conversion to 2MeGln” value was “not detected within astrocytes in significant amounts, and no conversion to 2MeGln was detected”. Moreover, the Transport into synaptosomes entry in data set [11] was “transported into synaptosomes”.
Regarding `C[C@](N)(CCC(=O)O)C(=O)O` [(S)-2MeGlu, (S)-2-methylglutamic acid], the “% of agonist response, GABAB (B1/B2)” value in data set [1] is 0%. In addition, the EC50 is 725 µM in [2]; 704 µM in data set [4]; 961 µM in data set [6]; 530 µM in data set [9]; 782 µM in data set [10]; 342 µM in data set [12]. For the same compound, the IC50 (in general, the point on the concentration scale where inhibition reaches its midpoint) in data set [2] (antagonist mode) was determined as 978 µM. Moreover, the inhibition at 100 µM in data set [3] stood at 6%; in data set [7], 6%; in data set [8], 25%; in [13], 5%. The “Astrocyte uptake and conversion to 2MeGln” value in [5] is “transported into astrocytes and then converted into 2MeGln”. Besides, the “Synaptosomal uptake rate relative to the R enantiomer” value in data set [11] is on record as “approximately threefold faster”. The Transport into synaptosomes entry in data set [11] is recorded as “transported into synaptosomes”.
